# Experimental data taken from article PMC9605374 (Marine Drugs, 2022).
# Where two headings read alike, the source gives them in different places.
# Columns and labels:
# [1] = system: 22Rv1; experiment: MTT assay, cell viability; format: cell-based; conditions: Homo sapiens, 22Rv1, 48 h of treatment, mean ± SD
# Excerpt: (§1) To examine the anticancer potential and selectivity of NB, we used a panel of six human prostate cancer cell lines, harboring different levels of treatment resistance to representatively reflect the heterogeneity of the disease. […] Additionally, four human noncancer cells lines were utilized in order to determine the selectivity of NB towards prostate cancer cells, i.e., prostate noncancer PNT2 and RWPE-1 cells, human embryonic kidney HEK 293T cells, and human fibroblasts MRC-9. The different cell lines were treated with NB and the cell viability was examined using MTT assay (Figure 1). The mean IC50 of NB and docetaxel (used as a reference substance) in noncancerous cell lines was divided by the mean IC50 in the prostate cancer cell lines to determine the selectivity index (SI).
# (§2) The MTT assay was used to monitor the effect of the drugs on cell viability in terms of metabolic activity, as previously reported. First, preincubation of the cells in 96-well plates (6 × 10^3 cells/well in 100 μL/well) was performed overnight in the correspondent culture medium. Next, the medium was exchanged for fresh medium containing the investigated compounds or a vehicle (100 μL/well). Cells were then incubated for 48 h, unless otherwise stated. Then, 10 μL/well of 3-(4,5-dimethylthiazol-2-yl)-2,5-diphenyltetrazolium bromide reagent (MTT, 5 mg/mL) were added. After 2–4 h of additional incubation the media was removed, and the plates were dried. Finally, 50 μL/well of DMSO were added to solve the formed formazan crystals produced by the metabolic active cells and Infinite F200PRO reader (TECAN, Männedorf, Switzerland) was used to measure the cell viability. The results were proceeded with a GraphPad Prism software v.9.1.1 (GraphPad Software, San Diego, CA, USA). Cells treated with the solvent of the drugs alone were used as a control (100% alive cells). The effect of the drugs on cell viability is represented as IC50.
# [2] = system: DU145; experiment: MTT assay, cell viability; format: cell-based; conditions: Homo sapiens, DU-145, DU145, 48 h of treatment, mean ± SD
# Excerpt: as §1, §2
# [3] = system: HEK293; experiment: MTT assay, cell viability; format: cell-based; conditions: Homo sapiens, HEK293, 48 h of treatment, mean ± SD
# Excerpt: as §1, §2
# [4] = system: LNCaP; experiment: MTT assay, cell viability; format: cell-based; conditions: Homo sapiens, 48 h of treatment, mean ± SD
# Excerpt: as §1, §2
# [5] = system: MRC-9; experiment: MTT assay, cell viability; format: cell-based; conditions: Homo sapiens, MRC9, MRC-9, 48 h of treatment, mean ± SD
# Excerpt: as §1, §2
# [6] = system: PC3; experiment: MTT assay, cell viability; format: cell-based; conditions: Homo sapiens, PC-3, PC3, 48 h of treatment, mean ± SD
# Excerpt: as §1, §2
# [7] = system: PNT2; experiment: MTT assay, cell viability; format: cell-based; conditions: Homo sapiens, PNT2, 48 h of treatment, mean ± SD
# Excerpt: as §1, §2
# [8] = system: RWPE-1; experiment: MTT assay, cell viability; format: cell-based; conditions: Homo sapiens, RWPE-1, 48 h of treatment, mean ± SD
# Excerpt: as §1, §2
# [9] = system: VCaP; experiment: MTT assay, cell viability; format: cell-based; conditions: Homo sapiens, 48 h of treatment, mean ± SD
# Excerpt: as §1, §2
# [10] = system: ERK1/2 in 22Rv1 cells; experiment: Western blotting, MAPK activation; format: cell-based, human; conditions: 22Rv1, 1 µM or 10 µM
# Protocol: (§3) We examined several time points, specifically, 15 min, 2 h, and 48 h (Figure 6).
# (§4) Figure 6 Validation of kinome analysis data. 22Rv1 cells were treated with 1 µM or 10 µM of NB for the indicated time. The protein expression was analyzed by Western blotting using total protein load equal to 30 µg/slot. α-Tubulin was used as a loading control.
# (§5) The Western blot assay was executed as previously described: 1 × 10^6 cells were seeded in Petri dishes (ø 6 cm, 5 mL/dish) and incubated overnight. On the next day, the cells were treated with the compounds in fresh culture media (5 mL/dish) for the indicated time. Next, cells were harvested with a cell scraper and lysed in lysis buffer including protease and phosphatase inhibitors cocktail (Roche, Mannheim, Germany). Cell debris were removed from the protein lysates via centrifugation. Afterwards, the cell-free protein mixtures were separated in gradient ready-made Mini-PROTEAN® TGX Stain-Free^TM gels (Bio-Rad, Hercules, CA, USA) using SDS-PAGE (sodium dodecylsulfate polyacrylamide gel electrophoresis). Then, the proteins were blotted onto ø 0.2 µm pore PVDF membrane. The membrane was blocked and consequently treated with primary and secondary antibodies for protein detection. The signals were detected using the ECL chemiluminescence system (Thermo Scientific, Rockford, IL, USA).
# [11] = system: JNK1/2 in 22Rv1 cells; experiment: Western blotting, MAPK activation; format: cell-based, human; conditions: 22Rv1, 1 µM or 10 µM
# Protocol: as §3, §4, §5
# [12] = system: p38 in 22Rv1 cells; experiment: Western blotting, MAPK activation; format: cell-based, human; conditions: 22Rv1, 1 µM or 10 µM, 2 h
# Protocol: as §3, §4, §5
# [13] = system: p-gp in PC3-DR cells; experiment: Western blotting, p-gp expression; format: cell-based, human; conditions: 48 h, up to 6 µM
# Protocol: (§6) Number of replicates n = 3. […] Viability was measured using an MTT assay. Number of replicates n = 3.
# It is important to note that a reduction in p-gp activity could be conditioned by p-gp degradation or cell death-related processes. Consequently, using a Western blotting analysis, we measured p-gp expressional levels in the treated PC3-DR cells. […] Thus, the observed effect on p-gp activity seems to be exclusively related to the interaction of NB with p-gp rather than result from any cell death-related events.
# as §5, with “The membrane was blocked and consequently treated with primary and secondary antibodies for protein detection.” left out
# [14] = system: PC3-DR cells; experiment: MTT assay with or without tariquidar pretreatment; format: cell-based, human; conditions: 48 h, tariquidar 50 nM 30 min pretreatment
# Protocol: as §6
# As a next step, we investigated how NB interacts with p-gp. P-gp activity can be reduced in two distinct ways: (i) competitive inhibition through direct binding to the active pocket as the ligand itself; and (ii) allosteric/noncompetitive inhibition reducing the activity of a protein through binding to allosteric/regulatory sites or other means. […] Therefore, docetaxel binds to p-gp (while being excreted from the cell), competitively inhibiting p-gp-mediated calcein-AM excretion, which leads to calcein accumulation, resulting in more intense green fluoresce. To elucidate the mechanism of p-gp inhibition by NB (competitive vs. allosteric/noncompetitive inhibition), we co-treated PC3-DR cells with tariquidar (TQD), a selective noncompetitive p-gp inhibitor and NB, and examined the effect on cellular viability (Figure 8C). […]
# The MTT assay was used to monitor the effect of the drugs on cell viability in terms of metabolic activity, as previously reported. […] Finally, 50 μL/well of DMSO were added to solve the formed formazan crystals produced by the metabolic active cells and Infinite F200PRO reader (TECAN, Männedorf, Switzerland) was used to measure the cell viability. […]
# [15] = system: mouse lymphoma cells L5178Y; set-up: method as in doi:10.1016/j.phytol.2014.12.010; conditions: cited from earlier work
# [16] = system: 22Rv1; set-up: method as in PMID 27355960; conditions: cited from earlier work
structure (smiles),measurement,setting,value
"COc1ccc(C2SSC34CC5(O)C(Cl)C=CC(O)C5ON3C(=O)C2N(C)C4=O)c(O)c1OC (centres unmarked) [NB, N-methylpretrichodermamide B]",IC50,[1],3.02 ± 2.5 µM
same,IC50,[2],13 ± 2.69 µM
same,IC50,[3],9.3 ± 1.57 µM
same,IC50,[4],12.2 ± 2.97 µM
same,IC50,[5],11.1 ± 4.3 µM
same,IC50,[6],6.03 ± 1.18 µM
same,IC50,[7],25.1 ± 5.92 µM
same,IC50,[8],16.4 ± 1.87 µM
same,IC50,[9],0.143 ± 0.145 µM
same,activation of ERK1/2,[10],no activation
same,JNK1/2 phosphorylation,[11]; 2 h,pronounced JNK1/2 phosphorylation
same,JNK1/2 phosphorylation,[11]; 48 h,no phosphorylation (or even slight downregulation)
same,activation of p38,[12],activation of p38
same,p-gp expression,[13],no significant changes in p-gp expression
same,cytotoxicity when co-treated with TQD,[14],increased
same,IC50,[15],2 µM
same,IC50,[16],0.51 µM
